Results reported in patent US12371454B2, “Cyclic peptide compound having Kras inhibitory action” (priority 2019, dated 2025).
Starred links: 1 amine or outer side, 2 acyl side, 3 side chain; linkers in the order of their positions; H or OH if unused. Positions of bridges follow the written chain, without caps; N, C: chain ends. Non-standard residues stand in square brackets, D forms with d. Residues, ends and D or L forms follow the SMILES beside them. *: point of attachment. hPhe(3-Cl-4-CF3) = N[C@@H](CCc1ccc(C(F)(F)F)c(Cl)c1)C(=O)O; hPhe(3-F,4-CF3) = N[C@@H](CCc1ccc(C(F)(F)F)c(F)c1)C(=O)O; NMeGly(cPent) = CN[C@H](C(=O)O)C1CCCC1; NMeGly(cBu) = CN[C@H](C(=O)O)C1CCC1; NMeCha = CN[C@@H](CC1CCCCC1)C(=O)O; X2 = C=CC[C@](C)(N[*:1])C(=O)[*:2]; NMeCba = CN[C@@H](CC1CCC1)C(=O)O; NMeChg = CN[C@H](C(=O)O)C1CCCCC1; NMeI = CC[C@H](C)[C@H](NC)C(=O)O; NMeT = CN[C@H](C(=O)O)[C@@H](C)O; NMeD = CN[C@@H](CC(=O)O)C(=O)O; NMeL = CN[C@@H](CC(C)C)C(=O)O; NMeV = CN[C@H](C(=O)O)C(C)C; NMeS = CN[C@@H](CO)C(=O)O; Morpholide = C1CN(*)CCO1; NMeA = CN[C@@H](C)C(=O)O; Piperidide = C1CCN(*)CC1; Ac5c = NC1(C(=O)O)CCCC1; Aze = O=C(O)[C@@H]1CCN1; Isopentyl = CC(C)CC*; Sar = CNCC(=O)O

What was measured:
[1] = system: Human pancreatic cancer cell line AsPC-1; test: Measurement of AsPC-1 cell growth inhibition (AsPC-1 CGI); type: cell-based; conditions: 96 h
How it was run: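 AsPC-1 cells in 15% FBS RPMI-1640 were exposed to test compound for 96 hours at 37° C, with CellTiter-Glo as endpoint.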

[2] = target: T1, Kras and SOS1 (biotin-tagged human Kras loaded with GDP, His-tagged human SOS1) (Homo sapiens, UniProt P01116, G12D); test: Protein-protein interaction inhibition between Kras and SOS1 (KrasGl2D-SOS PPI) using AlphaScreen; type: binding; conditions: AlphaScreen; biotin-tagged human Kras loaded with GDP, His-tagged human SOS1; read-out: KRAS G12D-SOS PPI IC50
T1 construct: made in house; host or cells: E. coli (stated for Kras only)
T1 sequence (P01116 1-188 isoform P01116-2 G12D): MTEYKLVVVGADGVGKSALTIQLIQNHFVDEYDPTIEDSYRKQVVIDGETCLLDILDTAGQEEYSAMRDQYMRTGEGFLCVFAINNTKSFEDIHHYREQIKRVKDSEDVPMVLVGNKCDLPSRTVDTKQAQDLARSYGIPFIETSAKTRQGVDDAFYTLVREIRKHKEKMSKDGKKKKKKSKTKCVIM
How it was run: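 Energy transfer from nickel-chelate donor beads bound to His-SOS1 to streptavidin acceptor beads bound to biotin-Kras, expressed in E. coli and loaded with GDP after purification, was monitored. Donors were excited at 680 nm; singlet oxygen reaching acceptors gave emission read at 520-620 nm.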

| Compound | IC50 [1] | IC50 [2] |
| --- | --- | --- |
| CC[C@H](C)[C@@H]1NC(=O)[C@H](CC(C)C)N(C)C(=O)C[C@@H](C(=O)N2CCCCC2)N(C)C(=O)[C@H](C2CCCCC2)N(C)C(=O)C2(CCCC2)NC(=O)[C@@H]2CCCN2C(=O)[C@H](CCc2ccc(C(F)(F)F)c(Cl)c2)NC(=O)CN(C)C(=O)[C@H]([C@@H](C)OC)N(C)C(=O)CN(C)C(=O)CN(C)C1=O [Compound 1072] ([NMeL]I[Sar][Sar][NMeT](Me)[Sar][hPhe(3-Cl-4-CF3)]P[Ac5c][NMeChg][NMeD]-Piperidide; lactam N-11) | 100 to 500 nM | 1.2 nM |
| CC[C@H](C)[C@@H]1NC(=O)[C@H](CC(C)C)N(C)C(=O)C[C@@H](C(=O)N2CCCCC2)N(C)C(=O)[C@H](C2CCCC2)N(C)C(=O)C2(CCCC2)NC(=O)[C@@H]2CCCN2C(=O)[C@H](CCc2ccc(C(F)(F)F)c(Cl)c2)NC(=O)CN(C)C(=O)[C@H](CC2CCCCC2)N(C)C(=O)CN(C)C(=O)CN(C)C1=O [Compound 1073] ([NMeL]I[Sar][Sar][NMeCha][Sar][hPhe(3-Cl-4-CF3)]P[Ac5c][NMeGly(cPent)][NMeD]-Piperidide; lactam N-11) | 20 to 50 nM | 2.1 nM |
| CC[C@H](C)[C@@H]1NC(=O)[C@H](CC(C)C)N(C)C(=O)C[C@@H](C(=O)N2CCOCC2)N(C)C(=O)[C@H]([C@@H](C)CC)N(C)C(=O)C2(CCCC2)NC(=O)[C@@H]2CCCN2C(=O)[C@H](CCc2ccc(C(F)(F)F)c(F)c2)NC(=O)CN(C)C(=O)[C@H](C2CCCC2)N(C)C(=O)[C@@H]2CCN2C(=O)[C@H](C)N(C)C1=O [Compound 1098] ([NMeL]I[NMeA][Aze][NMeGly(cPent)][Sar][hPhe(3-F,4-CF3)]P[Ac5c][NMeI][NMeD]-Morpholide; lactam N-11) | 20 to 50 nM | 5.6 nM |
| C=CC[C@]1(C)NC(=O)[C@@H]2CCCN2C(=O)[C@H](CCc2ccc(C(F)(F)F)c(Cl)c2)NC(=O)CN(C)C(=O)[C@H](CC2CCCCC2)N(C)C(=O)CN(C)C(=O)CN(C)C(=O)[C@H]([C@@H](C)CC)NC(=O)[C@H](CC(C)C)N(C)C(=O)C[C@@H](C(=O)N2CCCCC2)N(C)C(=O)[C@H](C(C)C)N(C)C1=O [Compound 1109] ([NMeL]I[Sar][Sar][NMeCha][Sar][hPhe(3-Cl-4-CF3)]P[X2][NMeV][NMeD]-Piperidide; lactam N-11) | 100 to 500 nM | 23 nM |
| CC[C@H](C)[C@@H]1NC(=O)[C@H](CC2CCC2)N(C)C(=O)C[C@@H](C(=O)N2CCCCC2)N(C)C(=O)[C@H](C(C)C)N(C)C(=O)C2(CCCC2)NC(=O)[C@@H]2CCCN2C(=O)[C@H](CCc2ccc(C(F)(F)F)c(Cl)c2)NC(=O)CN(C)C(=O)[C@H](CC2CCCCC2)N(C)C(=O)[C@@H]2CCN2C(=O)[C@H](C)N(C)C1=O [Compound 1114] ([NMeCba]I[NMeA][Aze][NMeCha][Sar][hPhe(3-Cl-4-CF3)]P[Ac5c][NMeV][NMeD]-Piperidide; lactam N-11) | 100 to 500 nM | 11 nM |
| CC[C@H](C)[C@@H]1NC(=O)[C@H](COCCC(C)C)N(C)C(=O)C[C@@H](C(=O)N2CCCCC2)N(C)C(=O)[C@H](C2CCCCC2)N(C)C(=O)C2(CCCC2)NC(=O)[C@@H]2CCCN2C(=O)[C@H](CCc2ccc(C(F)(F)F)c(Cl)c2)NC(=O)CN(C)C(=O)[C@H](CC2CCCCC2)N(C)C(=O)CN(C)C(=O)CN(C)C1=O [Compound 1115] ([NMeS](Isopentyl)I[Sar][Sar][NMeCha][Sar][hPhe(3-Cl-4-CF3)]P[Ac5c][NMeChg][NMeD]-Piperidide; lactam N-11) | 100 to 500 nM | 2.5 nM |
| CC[C@H](C)[C@@H]1NC(=O)[C@H](CC(C)C)N(C)C(=O)C[C@@H](C(=O)N2CCCCC2)N(C)C(=O)[C@H](C(C)C)N(C)C(=O)C2(CCCC2)NC(=O)[C@@H]2CCCN2C(=O)[C@H](CCc2ccc(C(F)(F)F)c(Cl)c2)NC(=O)CN(C)C(=O)[C@H](CC2CCC2)N(C)C(=O)CN(C)C(=O)CN(C)C1=O [Compound 1124] ([NMeL]I[Sar][Sar][NMeCba][Sar][hPhe(3-Cl-4-CF3)]P[Ac5c][NMeV][NMeD]-Piperidide; lactam N-11) | 100 to 500 nM | 7 nM |
| CC[C@H](C)[C@@H]1NC(=O)[C@H](CC(C)C)N(C)C(=O)C[C@@H](C(=O)N2CCCCC2)N(C)C(=O)[C@H](C2CCC2)N(C)C(=O)C2(CCCC2)NC(=O)[C@@H]2CCCN2C(=O)[C@H](CCc2ccc(C(F)(F)F)c(Cl)c2)NC(=O)CN(C)C(=O)[C@H](CC2CCCCC2)N(C)C(=O)CN(C)C(=O)CN(C)C1=O [Compound 1128] ([NMeL]I[Sar][Sar][NMeCha][Sar][hPhe(3-Cl-4-CF3)]P[Ac5c][NMeGly(cBu)][NMeD]-Piperidide; lactam N-11) | 100 to 500 nM | 2.1 nM |
